In ChEMBL document CHEMBL1629541, “Synthesis and structure-activity relationships of aza- and diazabiphenyl analogues of the antitubercular drug (6S)-2-nitro-6-{[4-(trifluoromethoxy)benzyl]oxy}-6,7-dihydro-5H-imidazo[2,1-b][1,3]oxazine (PA-824)” (J Med Chem, 2010):
Values after ≈ are worked out from the molar mass of the structure shown.

Experiments:
[1] = Cmax in CD1 mouse lung at 40 mg/kg, po administered as single dose; type: ADME, organism-based; set-up: dose 40 mg/kg, route oral
[2] = Thermodynamic solubility in aqueous buffer at pH 1 at 20 degC by HPLC; type: physicochemical; conditions: for solubility thermodynamic: aqueous buffer
[3] = AUC (0-infinity) in CD1 mouse lung at 40 mg/kg, po administered as single dose; type: ADME, organism-based; set-up: time infinity, dose 40 mg/kg, route oral
[4] = Thermodynamic solubility in aqueous buffer at pH 7.4 at 20 degC by HPLC; type: physicochemical
[5] = tested on: Mycobacterium tuberculosis; experiment: microbe, parasite or virus in culture; conditions: H37Rv
[6] = Half life in CD1 mouse plasma at 40 mg/kg, po administered as single dose; type: ADME, organism-based; set-up: dose 40 mg/kg, route oral
[7] = tested on: Mycobacterium tuberculosis; experiment: microbe, parasite or virus in culture; conditions: H37Rv; remark: listed apart in the source
Description: Antitubercular activity against Mycobacterium tuberculosis H37Rv by LORA method

physchem [8] = conditions: water, pH 1
Description: Solubility of the compound in water at pH 1.0 by HPLC

[9] = AUC (0-infinity) in CD1 mouse plasma at 40 mg/kg, po administered as single dose; type: ADME, organism-based; set-up: time infinity, dose 40 mg/kg, route oral
[10] = Half life in CD1 mouse lung at 40 mg/kg, po administered as single dose; type: ADME, organism-based; set-up: dose 40 mg/kg, route oral
in vitro [11] = conditions: human, liver microsomes
Description: Metabolic stability in human liver microsomes assessed as compound remaining after 1 hr

[12] = Cmax in CD1 mouse plasma at 40 mg/kg, po administered as single dose; type: ADME, organism-based; set-up: dose 40 mg/kg, route oral
in vitro [13] = conditions: CD1, mouse, liver microsomes
Description: Metabolic stability in CD1 mouse liver microsomes assessed as compound remaining after 1 hr

[14] = Ratio of AUC (0-infinity) in lung to AUC (0-infinity) in plasma of CD1 mouse at 40 mg/kg, po administered as single dose; type: ADME, organism-based; set-up: dose 40 mg/kg, route oral
physchem [15] = conditions: water, pH 7
Description: Solubility of the compound in water at pH 7.0 by HPLC

[16] = Metabolic stability in human liver microsomes after 1 hr at 37 degC; type: ADME, Microsome; conditions: read-out: Stability
[17] = Half life in Sprague-Dawley rat at 5 mg/kg, iv administered as single dose; type: ADME, organism-based; set-up: dose 5 mg/kg, route intravenous; conditions: in vivo
[18] = Cmax in Sprague-Dawley rat at 20 mg/kg, po administered as single dose; type: ADME, organism-based; set-up: dose 20 mg/kg, route oral; conditions: in vivo
[19] = AUClast in Sprague-Dawley rat at 5 mg/kg, iv administered as single dose; type: ADME, organism-based; set-up: time 0 - last, dose 5 mg/kg, route intravenous; conditions: plasma
[20] = AUClast in Sprague-Dawley rat at 20 mg/kg, po administered as single dose; type: ADME, organism-based; set-up: time 0 - last, dose 20 mg/kg, route oral; conditions: plasma
[21] = Tmax in Sprague-Dawley rat at 20 mg/kg, po administered as single dose; type: ADME, organism-based; set-up: dose 20 mg/kg, route oral; conditions: in vivo
[22] = Tmax in Sprague-Dawley rat at 5 mg/kg, iv administered as single dose; type: ADME, organism-based; set-up: dose 5 mg/kg, route intravenous; conditions: in vivo
[23] = Cmax in Sprague-Dawley rat at 5 mg/kg, iv administered as single dose; type: ADME, organism-based; set-up: dose 5 mg/kg, route intravenous; conditions: in vivo
[24] = Oral bioavailability in Sprague-Dawley rat at 20 mg/kg, po administered as single dose; type: ADME, organism-based; conditions: in vivo

| Structure (SMILES) | Cmax [1] | solubility thermodynamic [2] | AUC(0-inf) [3] | solubility thermodynamic [4] | MIC [5] | half-life [6] | MIC [7] | solubility (physchem [8]) | AUC(0-inf) [9] | half-life [10] | remaining at 1 h (in vitro [11]) | Cmax [12] | remaining at 1 h (in vitro [13]) | solubility (physchem [15]) | also measured |
| --- | --- | --- | --- | --- | --- | --- | --- | --- | --- | --- | --- | --- | --- | --- | --- |
| O=[N+]([O-])c1cn2c(n1)OC[C@@H](OCc1cnc(-c3ccc(OC(F)(F)F)cc3)nc1)C2 | 4000 ng/mL | 1.5 µg/mL (≈ 3.43 µM) | 131 µg·h/mL | 1.2 µg/mL (≈ 2.74 µM) | 0.027 µM (≈ 0.0118 µg/mL) | 1380 min | 1.8 µM (≈ 0.787 µg/mL) | 3 µg/mL (≈ 6.86 µM) | 43 µg·h/mL | 1080 min | 96% | 1200 ng/mL | 87% | – | – |
| O=[N+]([O-])c1cn2c(n1)OC[C@@H](OCc1ccc(-c3ccc(C(F)(F)F)cn3)cc1)C2 | 34000 ng/mL | 0.84 µg/mL (≈ 2 µM) | 67 µg·h/mL | 0.42 µg/mL (≈ 0.999 µM) | 0.06 µM (≈ 0.0252 µg/mL) | 528 min | 1 µM (≈ 0.42 µg/mL) | 5.1 µg/mL (≈ 12.1 µM) | 20 µg·h/mL | 600 min | 93% | 1100 ng/mL | 90% | 0.2 µg/mL (≈ 0.476 µM) | Kp [14]: 3.4 |
| O=[N+]([O-])c1cn2c(n1)OC[C@@H](OCc1ccc(-c3ccc(C(F)(F)F)nc3)cc1)C2 | 373000 ng/mL | 0.38 µg/mL (≈ 0.904 µM) | 414 µg·h/mL | 0.17 µg/mL (≈ 0.404 µM) | 0.03 µM (≈ 0.0126 µg/mL) | – | 2.1 µM (≈ 0.883 µg/mL) | 11 µg/mL (≈ 26.2 µM) | 217 µg·h/mL | 546 min | 86% | 14000 ng/mL | – | 1 µg/mL (≈ 2.38 µM) | Kp [14]: 1.9 |
| COc1ccc(-c2ccc(CO[C@@H]3COc4nc([N+](=O)[O-])cn4C3)cc2)cn1 | – | – | – | – | 0.045 µM (≈ 0.0172 µg/mL) | – | 0.61 µM (≈ 0.233 µg/mL) | – | – | – | 40% | – | 6% | 4.4 µg/mL (≈ 11.5 µM) | remaining at 1 h [16]: > 50% |
| O=[N+]([O-])c1cn2c(n1)OC[C@@H](OCc1ccc(-c3ccnc(F)c3)cc1)C2 | – | – | – | – | 0.23 µM (≈ 0.0852 µg/mL) | – | 1.4 µM (≈ 0.518 µg/mL) | 15 µg/mL (≈ 40.5 µM) | – | – | 93% | – | 86% | 14 µg/mL (≈ 37.8 µM) | – |
| O=[N+]([O-])c1cn2c(n1)OC[C@@H](OCc1ccc(-c3ccc(OC(F)(F)F)cc3)cc1)C2 | 9000 ng/mL | < 0.1 µg/mL | 218 µg·h/mL | < 0.1 µg/mL | – | – | – | 1.1 µg/mL (≈ 2.53 µM) | 198 µg·h/mL | 780 min | – | 7400 ng/mL | – | – | – |
| O=[N+]([O-])c1cn2c(n1)OC[C@@H](OCc1ccc(OC(F)(F)F)cc1)C2 [PRETOMANID] | – | 11 µg/mL (≈ 30.6 µM) | – | – | – | – | – | – | – | – | – | – | – | – | – |
| O=[N+]([O-])c1cn2c(n1)OC[C@@H](OCc1ccc(-c3ccc(OC(F)(F)F)cc3)nc1)C2 [TBA-354] | 18000 ng/mL | – | 81 µg·h/mL | < 0.1 µg/mL | 0.05 µM (≈ 0.0218 µg/mL) | 1440 min | 0.54 µM (≈ 0.236 µg/mL) | – | 296 µg·h/mL | 132 min | 83% | 12000 ng/mL | 87% | – | half-life [17]: > 360 min; Cmax [18]: 8100 ng/mL; AUC(0-t) [19]: 12100 ng·h/mL; solubility ([2]; buffer): 45 µg/mL (≈ 103 µM); AUC(0-t) [20]: 30100 ng·h/mL; Tmax [21]: 5 h; Tmax [22]: 4.98 min; Cmax [23]: 3900 ng/mL; bioavailability [24]: 62% |
